Test results published in patent publication US20210332396A1, “GENETIC ELEMENTS IN ENTEROCOCCUS SPP. TO PRODUCE DOPAMINE” (Iowa State University Research Foundation, Inc., priority 2018, published 2021).

Columns and labels:
[1] = cited from earlier work
E. faecium strain ML1082 = test: Inhibition of dopamine production of strain ML1082 by Carbidopa in sSIM; assay type: cell-based, Enterococcus faecium
Experimental: To further verify the strains were producing dopamine from L-DOPA, Carbidopa, an inhibitor of dopamine production through L-DOPA decarboxylation, was added to sSIM. […] A functional approximation of the ICso for dopamine was calculated to be 1.53E^−3. The IC50 was similar to the L-DOPA concentration of the broth, 1.26 mM, a finding that may indicate a competitive inhibitory mechanism for the bacterial enzyme.

Structure (SMILES)	half-life of auto-oxidation ([1]; pH of 5.6) [days]	reaction rate for the auto-oxidation (k) ([1]; pH of 5.6) [s⁻¹]	half-life of oxidation ([1]; pH of 7.4) [min]	oxidation rate ([1]; pH of 7.4) [s⁻¹]	inhibition of dopamine production (in words) (E. faecium strain ML1082)
NCCc1ccc(O)c(O)c1 [dopamine]	13.5	0.000000591	4.95	0.000586	
C[C@@](Cc1ccc(O)c(O)c1)(NN)C(=O)O [Carbidopa]					dose-dependent inhibition
